Results as given in ChEMBL document CHEMBL1800005, “Synthesis and biological activity of a series of tetrasubstituted-imidazoles as P2X(7) antagonists” (Bioorg Med Chem Lett, 2010).
≈ marks a conversion by molar mass, not a printed value.

Assays:
P2X purinoceptor 7 [1] = biological target: T1, P2X purinoceptor 7 (Homo sapiens, UniProt Q99572); assay: Antagonist activity at human recombinant P2X7 receptor expressed in HEK293 cells by ethidium bromide […] assay; format: functional, cell-based
T1 sequence (Q99572 whole entry): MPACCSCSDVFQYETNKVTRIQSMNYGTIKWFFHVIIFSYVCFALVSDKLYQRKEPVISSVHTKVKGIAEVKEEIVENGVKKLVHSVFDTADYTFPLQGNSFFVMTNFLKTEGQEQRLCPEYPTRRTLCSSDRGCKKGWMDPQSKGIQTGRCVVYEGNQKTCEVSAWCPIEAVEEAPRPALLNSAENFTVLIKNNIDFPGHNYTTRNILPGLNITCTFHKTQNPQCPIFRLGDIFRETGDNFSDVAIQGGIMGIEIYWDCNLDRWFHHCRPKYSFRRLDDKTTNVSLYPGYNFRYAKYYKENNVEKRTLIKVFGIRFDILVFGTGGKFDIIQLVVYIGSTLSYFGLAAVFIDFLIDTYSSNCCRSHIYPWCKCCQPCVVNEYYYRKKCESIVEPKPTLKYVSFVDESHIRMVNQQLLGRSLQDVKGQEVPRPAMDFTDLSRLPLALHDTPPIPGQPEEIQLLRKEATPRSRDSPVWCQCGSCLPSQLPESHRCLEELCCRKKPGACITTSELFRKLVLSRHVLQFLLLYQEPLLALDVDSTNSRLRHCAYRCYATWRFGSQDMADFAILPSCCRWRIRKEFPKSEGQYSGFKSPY

P2X purinoceptor 7 [2] = biological target: T2, P2X purinoceptor 7 (Rattus norvegicus, UniProt Q64663); assay: Antagonist activity at rat recombinant P2X7 receptor expressed in HEK293 cells by ethidium bromide […] assay; format: functional, cell-based
T2 sequence (Q64663 whole entry): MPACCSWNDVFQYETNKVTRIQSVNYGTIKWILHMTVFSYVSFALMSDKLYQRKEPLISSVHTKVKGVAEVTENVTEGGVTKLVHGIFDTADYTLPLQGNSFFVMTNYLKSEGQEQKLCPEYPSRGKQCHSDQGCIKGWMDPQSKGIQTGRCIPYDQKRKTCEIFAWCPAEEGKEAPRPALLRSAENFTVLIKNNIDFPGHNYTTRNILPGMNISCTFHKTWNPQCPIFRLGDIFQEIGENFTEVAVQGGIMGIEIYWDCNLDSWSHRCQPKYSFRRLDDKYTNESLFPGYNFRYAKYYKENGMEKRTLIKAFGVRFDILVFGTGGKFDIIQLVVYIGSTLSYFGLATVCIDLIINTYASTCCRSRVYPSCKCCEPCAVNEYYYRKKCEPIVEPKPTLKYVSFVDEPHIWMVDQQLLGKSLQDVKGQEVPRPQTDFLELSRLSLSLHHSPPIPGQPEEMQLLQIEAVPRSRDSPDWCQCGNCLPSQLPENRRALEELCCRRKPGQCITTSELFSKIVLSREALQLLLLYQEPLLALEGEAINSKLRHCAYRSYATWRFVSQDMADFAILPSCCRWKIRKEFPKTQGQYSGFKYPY

[3] = Solubility of compound in fed state simulated intestinal fluid at pH 5 after 1 hr; format: physicochemical
[4] = Solubility of compound in simulated gastric fluid at pH 1.2 after 1 hr; format: physicochemical
[5] = Solubility of compound in fasted state simulated intestinal fluid at pH 6.5 after 1 hr; format: physicochemical
[6] = Dissociation constant, pKa of the compound; format: physicochemical
Cytochrome P450 2C9 = Cytochrome P450 2C9 (Homo sapiens, UniProt P11712); assay: Inhibition of CYP2C9; format: ADME
Cytochrome P450 2C9, sequence (P11712 whole entry): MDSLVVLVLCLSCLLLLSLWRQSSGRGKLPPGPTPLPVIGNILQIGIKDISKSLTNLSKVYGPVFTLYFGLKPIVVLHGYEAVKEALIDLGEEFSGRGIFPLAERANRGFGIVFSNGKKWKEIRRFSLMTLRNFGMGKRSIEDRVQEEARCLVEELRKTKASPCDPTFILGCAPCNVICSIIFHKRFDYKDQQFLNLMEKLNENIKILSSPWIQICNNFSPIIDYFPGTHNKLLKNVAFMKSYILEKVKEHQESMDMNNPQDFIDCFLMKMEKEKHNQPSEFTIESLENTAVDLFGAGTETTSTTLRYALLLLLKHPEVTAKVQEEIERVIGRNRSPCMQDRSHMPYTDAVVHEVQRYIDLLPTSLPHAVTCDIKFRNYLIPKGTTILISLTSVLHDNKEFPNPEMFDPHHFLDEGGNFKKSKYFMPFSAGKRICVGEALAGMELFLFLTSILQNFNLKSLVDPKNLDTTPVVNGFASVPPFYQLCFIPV

Cytochrome P450 3A4 = Cytochrome P450 3A4 (Homo sapiens, UniProt P08684); assay: Inhibition of CYP3A4 using diethoxyflourescein as a substrate; format: ADME
Cytochrome P450 3A4, sequence (P08684 whole entry): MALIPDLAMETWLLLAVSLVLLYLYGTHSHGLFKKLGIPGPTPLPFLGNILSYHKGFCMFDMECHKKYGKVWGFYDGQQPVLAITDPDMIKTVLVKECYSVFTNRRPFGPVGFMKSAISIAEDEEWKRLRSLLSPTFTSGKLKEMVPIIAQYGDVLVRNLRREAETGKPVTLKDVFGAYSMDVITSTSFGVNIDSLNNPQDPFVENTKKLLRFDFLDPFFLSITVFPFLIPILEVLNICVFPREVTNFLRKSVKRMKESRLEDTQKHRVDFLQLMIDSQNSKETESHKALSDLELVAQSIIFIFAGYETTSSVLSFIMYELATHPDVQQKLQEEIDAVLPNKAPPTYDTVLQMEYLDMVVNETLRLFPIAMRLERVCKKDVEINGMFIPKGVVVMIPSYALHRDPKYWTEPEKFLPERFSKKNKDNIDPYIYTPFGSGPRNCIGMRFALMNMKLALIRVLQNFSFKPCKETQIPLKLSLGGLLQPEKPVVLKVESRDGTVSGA

Albumin = Albumin (Homo sapiens, UniProt P02768); assay: Protein binding in human serum albumin; format: ADME; conditions: read-out: PB
Albumin, sequence (P02768 whole entry): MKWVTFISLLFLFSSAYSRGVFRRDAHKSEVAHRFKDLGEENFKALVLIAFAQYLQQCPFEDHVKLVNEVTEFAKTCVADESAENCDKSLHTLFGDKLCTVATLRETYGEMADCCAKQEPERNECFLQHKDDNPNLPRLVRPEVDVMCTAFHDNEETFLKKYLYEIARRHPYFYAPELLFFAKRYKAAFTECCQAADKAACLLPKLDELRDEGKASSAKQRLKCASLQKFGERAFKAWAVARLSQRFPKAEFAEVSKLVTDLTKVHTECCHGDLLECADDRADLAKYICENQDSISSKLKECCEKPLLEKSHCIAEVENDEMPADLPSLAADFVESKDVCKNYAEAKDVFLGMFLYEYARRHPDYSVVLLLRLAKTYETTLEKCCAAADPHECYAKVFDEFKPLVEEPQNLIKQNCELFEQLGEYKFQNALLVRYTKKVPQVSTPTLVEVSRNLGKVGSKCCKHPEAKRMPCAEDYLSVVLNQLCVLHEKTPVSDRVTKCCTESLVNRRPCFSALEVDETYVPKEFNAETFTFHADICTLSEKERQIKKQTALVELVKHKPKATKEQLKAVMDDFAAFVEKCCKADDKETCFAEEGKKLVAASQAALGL

Cytochrome P450 2D6 = Cytochrome P450 2D6 (Homo sapiens, UniProt P10635); assay: Inhibition of CYP2D6; format: ADME
Cytochrome P450 2D6, sequence (P10635 whole entry): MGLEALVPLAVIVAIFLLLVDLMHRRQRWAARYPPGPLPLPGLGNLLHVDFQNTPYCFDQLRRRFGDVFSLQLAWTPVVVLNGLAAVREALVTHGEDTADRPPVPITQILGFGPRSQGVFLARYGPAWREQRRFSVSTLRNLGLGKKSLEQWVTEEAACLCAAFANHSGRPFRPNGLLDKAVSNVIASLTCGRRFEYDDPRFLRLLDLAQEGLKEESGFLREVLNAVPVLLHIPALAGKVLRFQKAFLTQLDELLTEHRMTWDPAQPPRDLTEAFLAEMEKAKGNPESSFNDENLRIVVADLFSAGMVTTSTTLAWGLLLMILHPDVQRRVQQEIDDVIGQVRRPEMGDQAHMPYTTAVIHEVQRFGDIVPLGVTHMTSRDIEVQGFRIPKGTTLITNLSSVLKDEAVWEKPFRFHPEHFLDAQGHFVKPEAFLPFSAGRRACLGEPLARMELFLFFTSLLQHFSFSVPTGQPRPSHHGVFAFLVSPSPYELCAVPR

Cytochrome P450 1A2 = biological target: T3, Cytochrome P450 1A2 (Homo sapiens, UniProt P05177); assay: Inhibition of CYP1A2; format: ADME
T3 sequence (P05177 whole entry): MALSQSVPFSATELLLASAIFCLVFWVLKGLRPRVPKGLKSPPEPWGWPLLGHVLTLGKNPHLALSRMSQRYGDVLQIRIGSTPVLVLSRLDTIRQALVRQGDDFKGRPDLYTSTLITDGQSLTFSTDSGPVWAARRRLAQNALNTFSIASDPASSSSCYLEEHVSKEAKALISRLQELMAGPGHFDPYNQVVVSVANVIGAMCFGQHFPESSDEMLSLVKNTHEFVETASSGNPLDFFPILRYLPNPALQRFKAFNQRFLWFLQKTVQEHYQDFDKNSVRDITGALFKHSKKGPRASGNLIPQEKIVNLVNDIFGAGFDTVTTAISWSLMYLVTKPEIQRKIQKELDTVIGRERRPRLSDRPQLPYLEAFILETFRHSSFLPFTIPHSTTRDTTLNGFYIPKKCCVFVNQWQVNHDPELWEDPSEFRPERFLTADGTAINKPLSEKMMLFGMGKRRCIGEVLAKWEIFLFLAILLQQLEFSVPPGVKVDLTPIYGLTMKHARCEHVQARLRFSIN

Cytochrome P450 2C19 = Cytochrome P450 2C19 (Homo sapiens, UniProt P33261); assay: Inhibition of CYP2C19; format: ADME
Cytochrome P450 2C19, sequence (P33261 whole entry): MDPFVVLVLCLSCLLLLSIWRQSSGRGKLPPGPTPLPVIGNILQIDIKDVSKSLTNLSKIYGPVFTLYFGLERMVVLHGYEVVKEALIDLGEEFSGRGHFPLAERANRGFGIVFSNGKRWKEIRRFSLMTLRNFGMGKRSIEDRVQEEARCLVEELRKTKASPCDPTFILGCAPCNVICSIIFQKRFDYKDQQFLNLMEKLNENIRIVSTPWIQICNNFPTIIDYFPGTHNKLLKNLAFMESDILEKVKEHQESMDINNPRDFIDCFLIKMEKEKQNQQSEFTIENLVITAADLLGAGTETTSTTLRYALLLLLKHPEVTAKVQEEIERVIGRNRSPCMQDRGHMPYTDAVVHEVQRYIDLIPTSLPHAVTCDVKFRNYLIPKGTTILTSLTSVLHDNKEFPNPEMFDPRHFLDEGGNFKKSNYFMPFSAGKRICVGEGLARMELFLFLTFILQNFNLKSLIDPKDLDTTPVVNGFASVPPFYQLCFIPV

[7] = Solubility of the compound in water after 1 hr; format: physicochemical
[8] = Cmax in rat at 3 mg/kg, po; format: ADME, organism-based; design: dose 3 mg/kg, route oral; conditions: in vivo
Rattus norvegicus = assay: Dose normalized AUC (0 to 6 hrs) in rat at 3 mg/kg, po; format: ADME, organism-based; design: dose 3 mg/kg, route oral; conditions: in vivo
[9] = Tmax in rat at 3 mg/kg, po; format: ADME, organism-based; design: dose 3 mg/kg, route oral; conditions: in vivo

| Structure (SMILES) | IC50 (P2X purinoceptor 7 [1]) [nM] | IC50 (P2X purinoceptor 7 [2]) [nM] | also measured |
| --- | --- | --- | --- |
| Cc1nc(-c2ccccc2)n(C)c1CC(=O)NCc1ccc(F)cc1Cl | 39.8 | 251 | – |
| Cc1nn(-c2ccccc2)c(C)c1CC(=O)NCc1ccc(F)cc1Cl | – | – | solubility at 1 h [3]: 100 µg/mL (≈ 269 µM); solubility at 1 h [4]: 410 µg/mL (≈ 1100 µM); solubility at 1 h [5]: 120 µg/mL (≈ 323 µM) |
| Cc1nc(-c2ccc(F)cc2F)n(C)c1CC(=O)NCc1ccc(F)cc1Cl [listing 1 of 2 here] | – | – | pKa [6]: 6.47; IC50 (Cytochrome P450 2C9): > 10000 nM; IC50 (Cytochrome P450 3A4): 5500 nM; fraction unbound (Albumin): 0.09; IC50 (Cytochrome P450 2D6): > 10000 nM; IC50 (Cytochrome P450 1A2): > 10000 nM; IC50 (Cytochrome P450 2C19): > 10000 nM |
| CCn1c(-c2ccccc2)nc(C)c1CC(=O)NCc1ccc(F)cc1Cl | 100 | 158 | – |
| Cc1nc(-c2ccccc2)n(C)c1CC(=O)NCc1cccc(Cl)c1C | 50.1 | 1580 | – |
| CCn1c(-c2ccccc2)nc(C)c1CC(=O)NCc1cccc(Cl)c1C | 50.1 | 631 | – |
| Cc1cccc(Cl)c1CNC(=O)Cc1c(C)nc(-c2ccccc2)n1C | 50.1 | 3160 | – |
| CCn1c(-c2ccccc2)nc(C)c1CC(=O)NCc1c(C)cccc1Cl | 50.1 | 501 | – |
| Cc1nc(-c2ccccc2)n(C)c1CC(=O)NCc1ccc(F)c(F)c1F | 100 | 5010 | – |
| CCn1c(-c2ccccc2)nc(C)c1CC(=O)NCc1ccc(F)c(F)c1F | 158 | 3980 | – |
| Cc1nc(-c2ccc(F)cc2F)n(C)c1CC(=O)NCc1ccc(F)cc1Cl [listing 2 of 2 here] | 39.8 | 316 | solubility at 1 h [7]: 920 µg/mL (≈ 2260 µM); Cmax [8]: 430 nM; solubility at 1 h [3]: 900 µg/mL (≈ 2210 µM); AUC/dose (Rattus norvegicus): 6.8 kg·min/L; solubility at 1 h [4]: > 1000 µg/mL; Tmax [9]: 30 min; solubility at 1 h [5]: 370 µg/mL (≈ 907 µM) |
| CCn1c(-c2ccc(F)cc2F)nc(C)c1CC(=O)NCc1ccc(F)cc1Cl | 100 | 158 | – |
| Cc1nc(-c2ccc(F)cc2F)n(C)c1CC(=O)NCc1cccc(Cl)c1C | 31.6 | 631 | – |
| CCn1c(-c2ccc(F)cc2F)nc(C)c1CC(=O)NCc1cccc(Cl)c1C | 39.8 | 398 | – |
| CCn1c(-c2ccc(F)cc2F)nc(C)c1CC(=O)NCc1c(C)cccc1Cl | 50.1 | 631 | – |
| Cc1nc(-c2ccc(F)cc2F)n(C)c1CC(=O)NCc1ccc(F)c(F)c1F | 63.1 | > 10000 | – |
| CCn1c(-c2ccc(F)cc2F)nc(C)c1CC(=O)NCc1ccc(F)c(F)c1F | 126 | 1000 | – |
| Cn1c(CC(=O)NCc2ccc(F)cc2Cl)cnc1-c1ccc(F)cc1F | 200 | 251 | – |
| CCn1c(CC(=O)NCc2ccc(F)cc2Cl)cnc1-c1ccc(F)cc1F | 501 | 398 | – |
| Cc1c(Cl)cccc1CNC(=O)Cc1cnc(-c2ccc(F)cc2F)n1C | 63.1 | 631 | – |
